This note sets out measurements from patent US20260241012A1, “1,8-NAPHTHYRIDIN-2-ONE HETEROBIFUNCTIONAL BCL6 DEGRADERS” (Treeline Biosciences, Inc., priority 2022, published 2026).

The experiment deals with T1, N-terminal HiBiT tagged BCL6 (Homo sapiens, UniProt P41182).
T1 construct: expressed in transfected cells; host or cells: HT1080 (ATCC CCL-121), stably transduced with lentivirus pLV-UBC-N-HiBiT-BCL6-PGK-puro
Put plainly: HiBiT based degradation assay. The experiment is classed as cell-based. As to conditions: HT1080 cells expressing N-terminal HiBiT tagged BCL6, 5 hours of incubation; for Ymin (5 hr): BCL6 degradation normalized with DMSO control; for DC50: four-parameter logistic model, read-out: EC50 (5 hr). From the text:
Human BCL6 protein coding open reading frame fused with N-terminal HiBiT coding sequence was synthesized from Integrated DNA Technologies (IDT). Next, the N-HiBiT-BCL6 sequence was cloned into pLV-UBC-PGK-Puro, a lentivirus plasmid purchased from Vectorbuilder, to generate pLV-UBC-N-HiBiT-BCL6-PGK-puro. Lentiviral particles were generated from Lenti-X™ 293T cells (Clontech) by co-transfection of pLV-UBC-N-HiBiT-BCL6-PGK-puro plasmids and lentiviral packaging plasmid mix (Cellecta). HT1080 [HT1080] (ATCC CCL-121) cells were infected with the lentivirus, and HT1080 cells stably integrated with the lentiviral vectors were established by incubation with 1 μg/mL puromycin (Thermofisher).
HT1080 cells expressing N-terminal HiBiT tagged BCL6 were dispensed into a 384-well plate pre-spotted with compounds at varying concentrations. Five thousand cells were seeded into each well in 40 μL of RPMI 1640 media plus 10% Fetal Bovine Serum (10082-147, Thermofisher). After 5 hours of incubation at 37° C. with 5% CO2, 30 μL of the NANO-GLOR HiBiT Lytic Detection System working solution (Promega) was added to each well and incubated at room temperature for 15 min. After incubation, luminescence was read on a PHERAstar FSX Plate Reader (BMG). BCL6 degradation at each indicated concentration was normalized with DMSO control. The BCL6 degradation curves were plotted using a four-parameter logistic model.
For orientation: With HiBiT, luminescence reflects the tagged protein that the partner subunit can reach.

In the case of `CNC(=O)COc1cc2cc(Nc3nc(N4CC5(CC[C@H](Nc6ccc7c(C8CCC(=O)NC8=O)nn(C)c7c6)[C@H](C)C5)C4)ncc3Cl)cnc2n(C)c1=O` (relative stereo) [Compound 156b, 2-((6-((5-chloro-2-((6R,7S)-7-((3-(2,6-dioxopiperidin-3-yl)-1-methyl-1H-indazol-6-yl)amino)-6-methyl-2-azaspiro[3.5]nonan-2-yl)pyrimidin-4-yl)amino)-1-methyl-2-oxo-1,2-dihydro-1,8-naphthyridin-3-yl)oxy)-N-methylacetamide], the “Ymin (5 hr)” value is given as “++++ (Ymin < 30%)” and the DC50 is less than 0.01 µM.
The matching figures for `CNC(=O)COc1cc2cc(Nc3nc(N4CC5(CC[C@@H](Nc6ccc7c(C8CCC(=O)NC8=O)nn(C)c7c6)[C@H](C)C5)C4)ncc3Cl)cnc2n(C)c1=O` (relative stereo) [Compound 156d, 2-((6-((5-chloro-2-((6R,7R)-7-((3-(2,6-dioxopiperidin-3-yl)-1-methyl-1H-indazol-6-yl)amino)-6-methyl-2-azaspiro[3.5]nonan-2-yl)pyrimidin-4-yl)amino)-1-methyl-2-oxo-1,2-dihydro-1,8-naphthyridin-3-yl)oxy)-N-methylacetamide]: “++++ (Ymin < 30%)” and less than 0.01 µM.
For the compound `CNC(=O)COc1cc2cc(Nc3nc(N4CC5(CC[C@H](Nc6cccc7c(C8CCC(=O)NC8=O)nn(C)c67)[C@H](C)C5)C4)ncc3Cl)cnc2n(C)c1=O` (relative stereo) [Compound 159a, 2-((6-((5-chloro-2-((6R,7S)-7-((3-(2,6-dioxopiperidin-3-yl)-1-methyl-1H-indazol-7-yl)amino)-6-methyl-2-azaspiro[3.5]nonan-2-yl)pyrimidin-4-yl)amino)-1-methyl-2-oxo-1,2-dihydro-1,8-naphthyridin-3-yl)oxy)-N-methylacetamide], the “Ymin (5 hr)” value is “+++ (30% ≤ Ymin < 50%)” and the DC50 was less than 0.01 µM.
`CNC(=O)COc1cc2cc(Nc3nc(N4CC5(CC[C@@H](Nc6cccc7c(C8CCC(=O)NC8=O)nn(C)c67)[C@@H](C)C5)C4)ncc3Cl)cnc2n(C)c1=O` (relative stereo) [Compound 159b, 2-((6-((5-chloro-2-((6S,7R)-7-((3-(2,6-dioxopiperidin-3-yl)-1-methyl-1H-indazol-7-yl)amino)-6-methyl-2-azaspiro[3.5]nonan-2-yl)pyrimidin-4-yl)amino)-1-methyl-2-oxo-1,2-dihydro-1,8-naphthyridin-3-yl)oxy)-N-methylacetamide]: the “Ymin (5 hr)” value was “+++ (30% ≤ Ymin < 50%)” and the DC50 was less than 0.01 µM.
In the case of `CNC(=O)COc1cc2cc(Nc3nc(N4CC5(CC[C@@H](Nc6ccc7c(C8CCC(=O)NC8=O)nn(C)c7c6)[C@@H](C)C5)C4)ncc3Cl)cnc2n(C(C)C)c1=O` (relative stereo) [Compound 180a, rel-2-((6-((5-chloro-2-((6S,7R)-7-((3-(2,6-dioxopiperidin-3-yl)-1-methyl-1H-indazol-6-yl)amino)-6-methyl-2-azaspiro[3.5]nonan-2-yl)pyrimidin-4-yl)amino)-1-isopropyl-2-oxo-1,2-dihydro-1,8-naphthyridin-3-yl)oxy)-N-methylacetamide], the “Ymin (5 hr)” value is recorded as “+++ (30% ≤ Ymin < 50%)” and the DC50 was in the range of 0.01 to 0.1 µM.
As for `CNC(=O)COc1cc2cc(Nc3nc(N4CC5(CC[C@H](Nc6ccc7c(C8CCC(=O)NC8=O)nn(C)c7c6)[C@H](C)C5)C4)ncc3Cl)cnc2n(C(C)C)c1=O` (relative stereo) [Compound 180b, rel-2-((6-((5-chloro-2-((6R,7S)-7-((3-(2,6-dioxopiperidin-3-yl)-1-methyl-1H-indazol-6-yl)amino)-6-methyl-2-azaspiro[3.5]nonan-2-yl)pyrimidin-4-yl)amino)-1-isopropyl-2-oxo-1,2-dihydro-1,8-naphthyridin-3-yl)oxy)-N-methylacetamide], the “Ymin (5 hr)” value is listed as “+++ (30% ≤ Ymin < 50%)” and the DC50 was less than 0.01 µM.
As for `CNC(=O)COc1cc2cc(Nc3nc(N4CC5(CC[C@H](Nc6ccc7c(C8CCC(=O)NC8=O)nn(C)c7c6)[C@@H](C)C5)C4)ncc3Cl)cnc2n(C(C)C)c1=O` (relative stereo) [Compound 180c, rel-2-((6-((5-chloro-2-((6S,7S)-7-((3-(2,6-dioxopiperidin-3-yl)-1-methyl-1H-indazol-6-yl)amino)-6-methyl-2-azaspiro[3.5]nonan-2-yl)pyrimidin-4-yl)amino)-1-isopropyl-2-oxo-1,2-dihydro-1,8-naphthyridin-3-yl)oxy)-N-methylacetamide], the “Ymin (5 hr)” value was “++++ (Ymin < 30%)” and the DC50 is less than 0.01 µM.
Regarding `CNC(=O)COc1cc2cc(Nc3nc(N4CC5(CC[C@@H](Nc6ccc7c(C8CCC(=O)NC8=O)nn(C)c7c6)[C@H](C)C5)C4)ncc3Cl)cnc2n(C(C)C)c1=O` (relative stereo) [Compound 180d, rel-2-((6-((5-chloro-2-((6R,7R)-7-((3-(2,6-dioxopiperidin-3-yl)-1-methyl-1H-indazol-6-yl)amino)-6-methyl-2-azaspiro[3.5]nonan-2-yl)pyrimidin-4-yl)amino)-1-isopropyl-2-oxo-1,2-dihydro-1,8-naphthyridin-3-yl)oxy)-N-methylacetamide], the “Ymin (5 hr)” value is on record as “++++ (Ymin < 30%)” and the DC50 was less than 0.01 µM.
The matching figures for `CNC(=O)COc1cc2cc(Nc3nc(N4CC5(CC[C@@H](Oc6ccc7c(C8CCC(=O)NC8=O)nn(C)c7c6)[C@@H](C)C5)C4)ncc3Cl)cnc2n(C(C)C)c1=O` (relative stereo) [Compound 185b, 2-[[6-[[5-chloro-2-[(6S,7R)-7-[3-(2,6-dioxo-3-piperidyl)-1-methyl-indazol-6-yl]oxy-6-methyl-2-azaspiro[3.5]nonan-2-yl]pyrimidin-4-yl]amino]-1-isopropyl-2-oxo-1,8-naphthyridin-3-yl]oxy]-N-methyl-acetamide]: “++++ (Ymin < 30%)” and less than 0.01 µM.
Take `CNC(=O)COc1cc2cc(Nc3nc(N4CC5(CC[C@H](Oc6ccc7c(C8CCC(=O)NC8=O)nn(C)c7c6)[C@@H](C)C5)C4)ncc3Cl)cnc2n(C(C)C)c1=O` (relative stereo) [Compound 185c, 2-[[6-[[5-chloro-2-[(6S,7S)-7-[3-(2,6-dioxo-3-piperidyl)-1-methyl-indazol-6-yl]oxy-6-methyl-2-azaspiro[3.5]nonan-2-yl]pyrimidin-4-yl]amino]-1-isopropyl-2-oxo-1,8-naphthyridin-3-yl]oxy]-N-methyl-acetamide]: the “Ymin (5 hr)” value is listed as “++++ (Ymin < 30%)” and the DC50 was less than 0.01 µM.
Take `CNC(=O)COc1cc2cc(Nc3nc(N4CC5(CC[C@@H](Oc6ccc7c(C8CCC(=O)NC8=O)nn(C)c7c6)[C@H](C)C5)C4)ncc3Cl)cnc2n(C(C)C)c1=O` (relative stereo) [Compound 185d, 2-[[6-[[5-chloro-2-[(6R,7R)-7-[3-(2,6-dioxo-3-piperidyl)-1-methyl-indazol-6-yl]oxy-6-methyl-2-azaspiro[3.5]nonan-2-yl]pyrimidin-4-yl]amino]-1-isopropyl-2-oxo-1,8-naphthyridin-3-yl]oxy]-N-methyl-acetamide]: the “Ymin (5 hr)” value is reported as “++++ (Ymin < 30%)” and the DC50 is less than 0.01 µM.
